Measurements as given in PubChem BioAssay (NCI).
Several values for one entry are separate records, joined by “and”; a condition that tells them apart may be missing. Equal entries are not always repeated.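 Five compound concentrations were applied to cells in 96-well plates for 48 hours; endpoints were derived by simple linear interpolation of the resulting dose-response curve. GI50 is the concentration that inhibits growth by half. TGI: total growth inhibition.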

Legend:
Experiment in all cases: DTP human tumour cell line panel, 48 h
OVCAR-5 ovarian = test system: OVCAR-5 ovarian
M14 melanoma = test system: M14 melanoma
K-562 leukemia = test system: K-562 leukemia
IGROV1 ovarian = test system: IGROV1 ovarian
UO-31 renal = test system: UO-31 renal
MDA-MB-231 breast = test system: MDA-MB-231 breast
HCT-116 colon = test system: HCT-116 colon
NCI/ADR-RES ovarian = test system: NCI/ADR-RES ovarian
SK-MEL-5 melanoma = test system: SK-MEL-5 melanoma
SF-295 CNS = test system: SF-295 CNS

Row | Structure (SMILES) | GI50 (OVCAR-5 ovarian) | TGI (OVCAR-5 ovarian) | GI50 (M14 melanoma) | TGI (M14 melanoma) | GI50 (K-562 leukemia) | TGI (K-562 leukemia) | GI50 (IGROV1 ovarian) | TGI (IGROV1 ovarian) | GI50 (UO-31 renal) | TGI (UO-31 renal) | GI50 (MDA-MB-231 breast) | TGI (MDA-MB-231 breast) | GI50 (HCT-116 colon) | TGI (HCT-116 colon) | GI50 (NCI/ADR-RES ovarian) | TGI (NCI/ADR-RES ovarian) | GI50 (SK-MEL-5 melanoma) | TGI (SK-MEL-5 melanoma) | GI50 (SF-295 CNS) | TGI (SF-295 CNS)
1 | COc1ccc(/C=C2/CN(CCC#N)C/C(=C\c3ccc(OC)cc3)C2=O)cc1 | 3.33 µM | 24.9 µM | 3.01 µM | 9.6 µM | 3.28 µM | > 100 µM | 2.77 µM | 8.26 µM | 1.74 µM | 4.86 µM | 2.71 µM | 15 µM | 0.829 µM | 2.38 µM | 3.73 µM | > 100 µM | 1.39 µM | 2.74 µM | – | –
2 | O=C(Nc1ccccc1)Nc1ccc(Cl)c(Cl)c1 | 8.85 µM | > 100 µM | 4.64 µM | > 100 µM | 3.79 µM | > 100 µM | 3.63 µM | > 100 µM | 2.62 µM | 21.9 µM | 3.9 µM | 25.4 µM | 3.03 µM | > 100 µM | 3.05 µM | 83.8 µM | 3.61 µM | 14.4 µM | 2.89 µM | 21.5 µM
3 | CC(C)COC(c1ccc2c(c1)OCO2)C(C)Br (stereo not given) | – | 49.3 µM | – | 50.9 µM | – | > 100 µM | – | > 100 µM | – | 67.5 µM | – | > 100 µM | – | 38.7 µM | – | 90.2 µM | – | 36.4 µM | – | 53.6 µM
4 | O=C1NC(=N[C@H](CO)c2ccccc2)S/C1=C\c1ccc2ncccc2c1 | 4.96 µM | 20.1 µM | 7.46 µM | > 25 µM | 4 µM | > 25 µM | 4.44 µM | > 17.1 µM | 4.61 µM | 13.8 µM | 7.71 µM | > 25 µM | 1.68 µM | > 21 µM | > 19.3 µM | > 25 µM | 4.89 µM | 10.6 µM | 4.69 µM | > 20 µM
5 | COc1cc(-c2nn(-c3cccc(NC(=O)CCN4CCN(C)CC4)c3)cc2-c2ccncc2)ccc1Cl | 2.06 µM | 5.82 µM | 1.09 µM | 2.71 µM | 0.73 µM | 2.53 µM | 2.37 µM | 15.6 µM | 1.38 µM | 3.91 µM | 1.69 µM | 3.66 µM | 0.904 µM | 4.17 µM | 2.62 µM | 8.76 µM | 0.529 µM | 1.86 µM | 0.968 µM | 2.75 µM
6 | COC(=O)C1=C(\O)C[C@@]2(C)CC[C@@H](C(=O)OC)C2C/C=C\1C(=O)OC (stereo not given in full) | – | > 100 µM | – | > 100 µM | – | – | – | > 100 µM | – | > 100 µM | – | – | – | > 100 µM | – | – | – | > 100 µM | – | > 100 µM
7 | CCN1C(=O)N(CC)C2C1NN=c1s/c(=C\c3ccc(OC)cc3)c(=O)n12 (stereo not given) | 0.474 µM | > 100 µM | 0.172 µM | > 100 µM | 0.053 µM | > 100 µM | 0.295 µM | > 100 µM | 0.653 µM | > 100 µM | 0.353 µM | > 39 µM | 0.188 µM | > 100 µM | 0.0744 µM | > 100 µM | 0.192 µM | 1.64 µM | 0.0684 µM | > 45.9 µM
8 | O=C1c2ccccc2C(=O)c2c1ccc1c2N=C(c2ccc(Br)cc2)CC(c2cccc3ccccc23)N1 (stereo not given) | – | > 100 µM | – | > 100 µM | – | > 100 µM | – | > 100 µM | – | > 100 µM | – | – | – | – | – | – | – | > 100 µM | – | > 100 µM
9 | CC1(C)CC(N2CCN(C3CC(C)(C)NC(C)(C)C3)CC2)CC(C)(C)N1 | – | > 100 µM | – | > 100 µM | – | > 100 µM | – | > 100 µM | – | > 100 µM | – | – | – | > 100 µM | – | – | – | > 100 µM | – | > 100 µM
10 | COc1cc(Cn2c(SCC(=O)Nc3ccc(Cl)cc3)nc3ccccc3c2=O)cc(OC)c1OC | 14.8 µM | > 100 µM | 16.5 µM | 86.4 µM | – | – | 19 µM | 55.8 µM | 3.75 µM | 32.4 µM | 3.08 µM | 13 µM | 4.04 µM | 14.9 µM | 8.38 µM | 27.6 µM | 6.38 µM | 21.2 µM | 5.54 µM | 18.4 µM
11 | COc1cc(/C=C/c2cc(O)c(C/C=C(\C)CC/C=C(\C)CO)c(O)c2)cc2c1O[C@]1(C)CC[C@@H](O)C(C)(C)[C@H]1C2 | > 100 µM | > 100 µM | 0.486 µM and 3.68 µM | 3.72 µM and 19 µM | – | – | > 100 µM | > 100 µM | – | – | 31 µM | > 100 µM | – | 46.5 µM | – | > 100 µM | – | – | 1.1 µM | –
12 | Fc1ccc(-c2nn3c(COc4ccc(Cl)cc4Cl)nnc3s2)cc1Oc1ccccc1 | 11.1 µM | 23.7 µM | 23 µM | 67.2 µM | 21.2 µM | > 100 µM | 26.2 µM | 92.6 µM | 30 µM | > 100 µM | 11.6 µM | 23.8 µM | 13.2 µM | 25.9 µM | – | – | 23 µM | 71.2 µM | 6.2 µM | 20 µM
13 | COc1c(C)c(O)c2c(c1C)OC(c1ccccc1)CC2=O (stereo not given) | – | > 100 µM | – | > 100 µM | – | > 100 µM | – | > 100 µM | – | > 100 µM | – | – | – | > 100 µM | – | – | – | – | – | > 100 µM
14 | ClCCCCOC1CCCCO1 (stereo not given) | – | > 100 µM | – | > 100 µM | – | – | – | > 100 µM | – | > 100 µM | – | – | – | > 100 µM | – | – | – | > 100 µM | – | > 100 µM
15 | NC(=O)c1cc([N+](=O)[O-])cc([N+](=O)[O-])c1 | – | > 100 µM | – | > 100 µM | – | > 100 µM | – | > 100 µM | – | > 100 µM | – | – | – | > 100 µM | – | – | – | > 100 µM | – | > 100 µM
16 | Cn1cnc([N+](=O)[O-])c1Sc1nc2ccc([N+](=O)[O-])cc2[nH]1 | – | > 100 µM | – | > 100 µM | – | 69.2 µM | – | 58.6 µM | – | 67.6 µM | – | – | – | 57.8 µM | – | – | – | 30.6 µM | – | > 100 µM
17 | O=C(O)COc1ccc(C(=O)/C(SS/C(C(=O)c2ccc(OCC(=O)O)c(Cl)c2Cl)=C2\C=C(c3ccccc3Cl)SS2)=C2/C=C(c3ccccc3Cl)SS2)c(Cl)c1Cl | – | > 100 µM | – | > 68 µM | – | > 49 µM | – | 63.2 µM | – | 68.2 µM | – | – | – | > 58.7 µM | – | – | – | 49 µM | – | > 100 µM
